# Where a name gives a salt, the structure may show the parent alone. Read-outs that look alike come from different tables or passages of the source.
# Experiments:
# [1] = molecular target: Human CGRP receptors (consisting of CRLR and RAMP1) (Homo sapiens (Human), UniProt O60894+Q16602); assay: Radioligand binding assay (3H-telcagepant displacement); settings: Sf21 membranes, 0.5 nM 3H-telcagepant, Cheng-Prussoff
# Method: Human Calcitonin Receptor Like Receptor (CRLR) and human RAMP1 were cloned into Invitrogen's (ThermoFisher Scientific, UK) pFastBac dual expression vector. Transposition of CRLR/RAMP1 DNA was performed using Invitrogen's Bac-to-Bac Baculovirus Expression Systems. P0 baculovirus was generated by transfecting SF9 cells with bacmid DNA using Cellfectin® II transfection reagent (ThermoFisher Scientific, UK, catalog number 10362-100). Following P0 generation P1 virus was then generated ready for large scale infection and membrane preparation. Sf21 cells were grown in expression medium ESF921 (Expression Systems, USA, catalog number 96-001-01) supplemented with 10% heat-inactivated FBS and 1% Pen/Strep and were infected at a cell density of 2.5×10^6 cells/mL and an MOI of 2. Expression was carried out over 48 h in a shaking incubator set at 27° C. The cell culture was centrifuged at 2,500 rcf for 10 min at 4° C. The pellets were resuspended in cold PBS supplemented with Roche's Complete EDTA-free protease inhibitor cocktail tablets (Roche Applied Sciences, catalog number 05056489001), 1 mM PMSF and 1 mM EDTA. The resuspended cell paste was then centrifuged at 3,273 rcf for 12 min at 4° C. The supernatant was discarded and the pellet frozen at −80° C. The cell pellet from a 4 L culture was resuspended in buffer containing 50 mM Hepes pH 7.5, 150 mM NaCl, 8 Roche EDTA-free protease inhibitor cocktail tablets and 1 mM PMSF. The suspension was left stirring at rt for 1 h and then homogenised for 90 s at 9,500 rpm using a VDI 25 (VWR, USA) homogeniser. The cells were then lysed using a Microfluidizer processor M-110L Pneumatic (Microfluidics, USA). After lysis, the mixture was homogenised for 90 s at 9,500 rpm and then centrifuged at 335 rcf for 10 min. The supernatant was then further ultra-centrifuged at 42,000 rpm for 90 min. After ultra-centrifugation, the supernatant was discarded and the pellet was resuspended in 50 mL (25 mL for each 2 L culture) of buffer containing 50 mM Hepes pH 7.5, 150 mM NaCl, 3 Roche EDTA-free protease inhibitor cocktail tablets and 1 mM PMSF. The suspension was then homogenised for 90 s at 9,500 rpm. The resulting membranes were then stored at −80° C.
# Human CGRP receptors expressed (consisting of CRLR and RAMP1) in insect Sf21 cell membrane homogenates were re-suspended in the binding buffer (10 mM HEPES, pH 7.4, 5 mM MgCl2, 0.2% BSA) to a final assay concentration of 0.6 μg protein per well. Saturation isotherms were determined by the addition of various concentrations of ^3H-telcagepant (Ho et al, The Lancet, 2008, 372, 2115) (in a total reaction volume of 250 μL) for 60 min at rt. At the end of the incubation, membranes were filtered onto a unifilter, a 96-well white microplate with bonded GF/B filter pre-incubated with 0.5% PEI, with a Tomtec cell harvester and washed 5 times with distilled water. Non-specific binding (NSB) was measured in the presence of 10 nM MK-3207 hydrochloride (CAS No. 957116-20-0). Radioactivity on the filter was counted (1 min) on a microbeta counter after addition of 50 μL of scintillation fluid. For inhibition experiments, membranes were incubated with 0.5 nM ^3H-telcagepant and 10 concentrations of the inhibitory compound (0.001-10 μM). IC50 values were derived from the inhibition curve and the affinity constant (Ki) values were calculated using the Cheng-Prussoff equation (Cheng et al, Biochem. Pharmacol. 1973, 22, 3099-3108).
# CGRP receptor = CGRP receptor (Homo sapiens (Human), UniProt O60894+Q16602); assay: cAMP functional assay (HTRF) in SK-N-MC cells; assay type: cell-based; settings: read-out: pkb average (converted)
# Sequence of CGRP receptor (Q16602 23-461): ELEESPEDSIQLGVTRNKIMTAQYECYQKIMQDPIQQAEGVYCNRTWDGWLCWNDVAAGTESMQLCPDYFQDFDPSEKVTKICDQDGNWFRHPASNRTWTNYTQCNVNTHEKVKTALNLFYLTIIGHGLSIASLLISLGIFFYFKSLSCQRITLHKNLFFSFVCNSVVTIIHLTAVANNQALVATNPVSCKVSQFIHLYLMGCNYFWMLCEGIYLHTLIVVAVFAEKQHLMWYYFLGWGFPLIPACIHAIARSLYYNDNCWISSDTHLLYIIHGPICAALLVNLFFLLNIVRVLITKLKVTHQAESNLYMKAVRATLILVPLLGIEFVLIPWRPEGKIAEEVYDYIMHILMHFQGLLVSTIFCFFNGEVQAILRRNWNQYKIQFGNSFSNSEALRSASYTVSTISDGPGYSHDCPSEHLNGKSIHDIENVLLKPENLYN
# Sequence of CGRP receptor (O60894 27-148): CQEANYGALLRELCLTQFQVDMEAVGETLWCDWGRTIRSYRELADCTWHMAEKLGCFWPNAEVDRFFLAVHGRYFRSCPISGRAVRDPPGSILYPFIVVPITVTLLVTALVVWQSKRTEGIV
# Method: cAMP production following receptor activation was determined using the Homogeneous Time-Resolved Fluorescence (HTRF) cAMP dynamic-2 assay (Cisbio, France). The human neuroblastoma cell line SK-N-MC endogenously expressing the human CGRP receptor was seeded at a density of 12,500 cells/well in solid walled 96 well half area plates (Costar, Catalog Number 3688, Corning Life Sciences, Germany). After 16 h incubation at 37° C. media was removed and cells were incubated at 37° C. for 30 min in serum free media containing 500 μM IBMX (Tocris, Abingdon, UK, Catalog Number 2845) and increasing concentrations of test antagonist. Following this cells were challenged with an EC80 concentration of human CGRP (0.3 nM) for a further 30 min at 37° C. and then cAMP production was determined as manufacturer's instructions before plates were read on a PheraStar fluorescence plate reader (BMG LabTech, Germany). IC50 values were derived from the inhibition curve. The pIC50 values (where pIC50=−log10 IC50) were converted to a functional pKb value using a modified Cheng-Prussoff equation where Kd=agonist EC50 and L hot=agonist challenge concentration. The pKb values of certain compounds of the invention are detailed in Table 3.
# [2] = molecular target: CGRP receptor ectodomain complex (Homo sapiens (Human), UniProt O60894+Q16602); assay: Receptor kinetic profiling by surface plasmon resonance (Biacore T200); settings: SPR; for receptor dissociation (off-rate) compared with olcegepant or MK-3207: in words; for CGRP t1/2: dissociation half-life, 25° C.
# Sequence of CGRP receptor ectodomain complex (Q16602 23-139): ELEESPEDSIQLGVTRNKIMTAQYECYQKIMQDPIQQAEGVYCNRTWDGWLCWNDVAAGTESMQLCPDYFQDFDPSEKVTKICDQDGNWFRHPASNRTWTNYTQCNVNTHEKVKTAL
# Sequence of CGRP receptor ectodomain complex (O60894 27-118): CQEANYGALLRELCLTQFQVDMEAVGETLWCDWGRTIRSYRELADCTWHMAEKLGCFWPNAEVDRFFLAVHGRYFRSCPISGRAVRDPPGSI
# Method: Kinetic analyses were run on a Biacore T200 instrument (GE Healthcare Bio-Sciences AB, Uppsala, Sweden) at 25° C. using 0.05 mM EDTA, PBS (10 mM phosphate buffer, 2.7 mM KCl, 137 mM NaCl) pH 7.4, 0.005% v/v Surfactant P20, 5% DMSO as the running buffer. […] The chip was loaded with Ni^2+ and carboxyl groups of the dextran matrix were activated by EDC/NHS. The receptor ectodomain complex (100 nM in running buffer) was then injected and immobilised via the His-tag and amino groups. Two fold dilution series of each compound (five concentrations, in the range 25-40 nM) were injected. Blank-subtracted data were fitted to a 1:1 interaction model to obtain kinetic parameters which are expressed in Table 4 as dissociation half-life (t1/2=(ln 2/off-rate (kd)/60).
# [3] = Thermodynamic solubility profiling; assay type: physicochemical; settings: aqueous buffer, thermodynamic from solid
# Method: A 50 mM DMSO stock solution of test compound was prepared, and from this, a working solution of 1 mM was prepared by dilution with DMSO. The UV absorbance of working solution was scanned from 220 nm to 1000 nm to identify the wavelength maxima of test compound. The 1 mM working solution was then serially diluted in DMSO to different concentrations to determine linearity/calibration curve. […] The resulting solution was then kept on a RotoSpin shaker at 50 rpm for 24 h at rt before the solution was filtered using 0.45 micron PVDF injector filters in order to remove the insoluble fraction of the compound. Subsequently, 150 uL of the filtrate is taken for quantification using a UV spectrophotometer, acquiring the optical density of standard solutions and test compound at the same wavelength maxima. From the optical density of test compound the thermodynamic solubility is calculated using the linearity/calibration curve and expressed as micromolar (μM). Solubility profiles of certain compounds of the invention are detailed in Table 7.
# [4] = PBS buffer pH 7.4, 24 h at rt, read-out: Thermodynamic solubility pH 7.4
# [5] = Sodium Phosphate Buffer pH 6.0, 24 h at rt, read-out: Thermodynamic solubility pH 6
# Sequence of Human CGRP receptors (consisting of CRLR and RAMP1) (Q16602 23-461): as the sequence (Q16602 23-461) above
# Sequence of Human CGRP receptors (consisting of CRLR and RAMP1) (O60894 27-148): as the sequence (O60894 27-148) above
pKi average [1],Kb (CGRP receptor),receptor dissociation (off-rate) compared with olcegepant or MK-3207 [2],CGRP t1/2 [2],"solubility thermodynamic at 24 h [3, 4]","solubility thermodynamic at 24 h [3, 5]",Structure (SMILES)
10.0,0.2 nM,slow receptor dissociation,78 min,–,–,"Cc1cc(C[C@@H](NC(=O)N2CCC(c3cc4ccccc4[nH]c3=O)CC2)C(=O)N[C@@H](CC2CCN(C(=O)OC(C)(C)C)CC2)C(=O)N2CCN(c3ccncc3)CC2)cc2cn[nH]c12 [Example 2, tert-butyl 4-{(2S)-2-{[(2R)-3-(7-methyl-1H-indazol-5-yl)-2-({[4-(2-oxo-1,2-dihydroquinolin-3-yl)piperidin-1-yl]carbonyl}amino)propanoyl]amino}-3-oxo-3-[4-(pyridin-4-yl)piperazin-1-yl]propyl}piperidine-1-carboxylate]"
10.1,0.158 nM,–,4 min,509 µM,10 µM,"Cc1cc(C[C@@H](NC(=O)N2CCC(c3cc4ccccc4[nH]c3=O)CC2)C(=O)N[C@@H](CC2CCNCC2)C(=O)N2CCN(c3ccncc3)CC2)cc2cn[nH]c12 [Example 3, N-[(2R)-3-(7-methyl-1H-indazol-5-yl)-1-oxo-1-({(2S)-1-oxo-3-(piperidin-4-yl)-1-[4-(pyridin-4-yl)piperazin-1-yl]propan-2-yl}amino)propan-2-yl]-4-(2-oxo-1,2-dihydroquinolin-3-yl)piperidine-1-carboxamide]"
10.4,0.02 nM,slow receptor dissociation,39 min,–,–,"CCCN1CCC(C[C@H](NC(=O)[C@@H](Cc2cc(C)c3[nH]ncc3c2)NC(=O)N2CCC(c3cc4ccccc4[nH]c3=O)CC2)C(=O)N2CCN(c3ccncc3)CC2)CC1 [Example 4, N-[(2R)-3-(7-methyl-1H-indazol-5-yl)-1-oxo-1-({(2S)-1-oxo-3-(1-propylpiperidin-4-yl)-1-[4-(pyridin-4-yl)piperazin-1-yl]propan-2-yl}amino)propan-2-yl]-4-(2-oxo-1,2-dihydroquinolin-3-yl)piperidine-1-carboxamide]"
10.0,0.1 nM,slow receptor dissociation,20 min,–,–,"CCCCC(=O)N1CCC(C[C@H](NC(=O)[C@@H](Cc2cc(C)c3[nH]ncc3c2)NC(=O)N2CCC(c3cc4ccccc4[nH]c3=O)CC2)C(=O)N2CCN(c3ccncc3)CC2)CC1 [Example 6, N-[(2R)-3-(7-methyl-1H-indazol-5-yl)-1-oxo-1-({(2S)-1-oxo-3-(1-pentanoylpiperidin-4-yl)-1-[4-(pyridin-4-yl)piperazin-1-yl]propan-2-yl}amino)propan-2-yl]-4-(2-oxo-1,2-dihydroquinolin-3-yl)piperidine-1-carboxamide]"
10.4,0.0251 nM,slow receptor dissociation,36 min,–,–,"CCN1CCC(C[C@H](NC(=O)[C@@H](Cc2cc(C)c3[nH]ncc3c2)NC(=O)N2CCC(c3cc4ccccc4[nH]c3=O)CC2)C(=O)N2CCN(c3ccncc3)CC2)CC1 [Example 7, N-[(2R)-1-({(2S)-3-(1-ethylpiperidin-4-yl)-1-oxo-1-[4-(pyridin-4-yl)piperazin-1-yl]propan-2-yl}amino)-3-(7-methyl-1H-indazol-5-yl)-1-oxopropan-2-yl]-4-(2-oxo-1,2-dihydroquinolin-3-yl)piperidine-1-carboxamide]"
10.1,0.00631 nM,slow receptor dissociation,32 min,–,–,"O=C(N[C@@H](CC1CCNCC1)C(=O)N1CCN(c2ccncc2)CC1)[C@@H](Cc1cc(Br)c(O)c(Br)c1)NC(=O)N1CCC(N2Cc3ccccc3NC2=O)CC1 [Example 9, 3,5-dibromo-Nα-{[4-(2-oxo-1,4-dihydroquinazolin-3(2H)-yl)piperidin-1-yl]carbonyl}-N-{(2S)-1-oxo-3-(piperidin-4-yl)-1-[4-(pyridin-4-yl)piperazin-1-yl]propan-2-yl}-D-tyrosinamide]"
–,0.0251 nM,–,101 min,1960 µM,1650 µM,"Cc1cc(C[C@@H](NC(=O)N2CCC(n3c(=O)[nH]c4ncccc43)CC2)C(=O)N[C@@H](CC2CCN(CCN(C)C)CC2)C(=O)N2CCN(c3ccncc3)CC2)cc2cn[nH]c12 [Example 12, N-[(2R)-1-({(2S)-3-{1-[2-(dimethylamino)ethyl]piperidin-4-yl}-1-oxo-1-[4-(pyridin-4-yl)piperazin-1-yl]propan-2-yl}amino)-3-(7-methyl-1H-indazol-5-yl)-1-oxopropan-2-yl]-4-(2-oxo-2,3-dihydro-1H-imidazo[4,5-b]pyridin-1-yl)piperidine-1-carboxamide]"
10.0,0.126 nM,–,–,–,–,"Cc1cc(C[C@@H](NC(=O)N2CCC(n3c(=O)[nH]c4ncccc43)CC2)C(=O)N[C@@H](CC2CCN(C(=O)CC(=O)O)CC2)C(=O)N2CCN(c3ccncc3)CC2)cc2cn[nH]c12 [Example 13, 3-(4-{(2S)-2-{[(2R)-3-(7-methyl-1H-indazol-5-yl)-2-({[4-(2-oxo-2,3-dihydro-1H-imidazo[4,5-b]pyridin-1-yl)piperidin-1-yl]carbonyl}amino)propanoyl]amino}-3-oxo-3-[4-(pyridin-4-yl)piperazin-1-yl]propyl}piperidin-1-yl)-3-oxopropanoic Acid, ammonium Salt]"
